Consider 19 molecules from US6943189B2, “Combination therapy employing ileal bile acid transport inhibiting benzothiepines and HMG CO-A reductase inhibitors” (G.D. Searle & Co., priority 1994, dated 2005).

For assay [1], the target named is T1, human IBAT (Homo sapiens, UniProt Q12908).
T1 construct: expressed in transfected cells; host or cells: Baby hamster kidney (BHK) cells, clone H14
T1 sequence (Q12908 1-348): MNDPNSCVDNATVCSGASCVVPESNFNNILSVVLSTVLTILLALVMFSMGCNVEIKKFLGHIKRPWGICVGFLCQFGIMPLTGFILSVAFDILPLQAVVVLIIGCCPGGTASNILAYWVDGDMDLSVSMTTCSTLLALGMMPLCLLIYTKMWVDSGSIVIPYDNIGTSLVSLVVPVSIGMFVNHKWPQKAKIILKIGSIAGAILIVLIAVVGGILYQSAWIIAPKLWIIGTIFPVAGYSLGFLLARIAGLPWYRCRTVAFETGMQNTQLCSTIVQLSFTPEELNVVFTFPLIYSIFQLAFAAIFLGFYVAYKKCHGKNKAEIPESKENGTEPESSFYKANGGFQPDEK
Kind of assay: In vitro assay of compounds that inhibit IBAT-mediated uptake of [14C]-taurocholate (TC) in H14 cells. It counts as cell-based. To be noted: [14C]-taurocholate uptake. How it is done: In Vitro Assay of Compounds That Inhibit IBAT-Mediated Uptake of [^14C]-Taurocholate (TC) in H14 Cells
Baby hamster kidney cells (BHK) transfected with the cDNA of human IBAT (H14 cells) are seeded at 60,000 cells/well in 96 well Top-Count tissue culture plates for assays run within in 24 hours of seeding, 30,000 cells/well for assays run within 48 hours, and 10,000 cells/well for assays run within 72 hours.
On the day of assay, the cell monolayer is gently washed once with […] assay buffer (Dulbecco's Modified Eaglets medium with 4.5 g/L glucose+0.2% (w/v) fatty acid free bovine serum albumin- (FAF)BSA). To each well 50 ml of a two-fold concentrate of test compound in assay buffer is added along with 50 ml of […] [^14C]-taurocholate in assay buffer (final concentration of […] [^14C]-taurocholate). The cell culture plates are incubated 2 hours at 37° C. prior to gently washing each well twice with […] 4° C. Dulbecco's phosphate-buffered saline (PBS) containing 0.2% (w/v) (FAF)BSA. The wells are then gently washed once with […] 4° C. PBS without (FAF)BSA. To each 200 ml of liquid scintillation counting fluid is added, the plates are heat sealed and shaken for 30 minutes at room temperature prior to measuring the amount of radioactivity in each well on a Packard Top-Count instrument.

Assay [2] relates to uptake of [14C]-alanine in H14 cells. Kind of assay: In vitro assay of compounds that inhibit uptake of [14C]-alanine (H14 cells). It is filed as cell-based, hamster. The following applies: Mesocricetus auratus.
Assay [3] is described as follows: Cholesterol-fed hamsters: fecal weight and fecal bile acid concentration (FBA). It is filed as in vivo, hamster. To be noted: mean (SEM), 4% cholestyramine or 0.2% Cpd. No. 25. How it is done:
Measurement of Fecal Bile Acid Concentration (FBA)
Total fecal output from individually housed hamsters was collected for 24 or 48 hours, dried under a stream of nitrogen, pulverized and weighed. Approximately 0.1 gram was weighed out and extracted into an organic solvent (butanol/water). Following separation and drying, the residue was dissolved in methanol and the amount of bile acid present was measured enzymatically using the 3a-hydroxysteroid steroid dehydrogenase reaction with bile acids to reduce NAD. (Reference: Mashige, F., et al. (1981) Clin. Chem. 27, 1352).

A short description of assay [4]: Rat Alzet minipump model: fecal weight and fecal bile acid concentration (FBA). The following applies: 20 MPL/DAY, mean (SEM). It counts as in vivo.

Molecules are shown by their SMILES. Read-outs that look alike come from different tables or passages of the source.

The term IC50 denotes the concentration at which inhibition is half-maximal. For orientation: inhibition means the change of the read-out against control, counted positive when it falls. For the molecule `CCCCC1(CC)CS(=O)(=O)c2ccccc2C(=C2CCCCC2)C1O` (stereo not drawn) [Example 10b, 3-Butyl-3-ethyl-4-hydroxy-5-cyclohexylidine-2,3,4,5-tetraydrobenzothiepine-1,1-dioxide], the IC50 in assay [1] (read-out: IC50 (In vitro Taurocholate Cell Uptake)) was determined as 15000 nM. The molecule also yielded an inhibition at 100 µM in assay [2] of 68.6%.

In the case of `CCCC[C@]1(CC)CS(=O)(=O)c2cc(OC)ccc2[C@@H](c2ccccc2)[C@H]1O` [Example 25, (3a,4b,5b) 3-Butyl-3-ethyl-4-hydroxy-8-methoxy-5-phenyl-2,3,4,5-tetrahydrobenzothiepine-1,1-dioxide], the “24 HR. FECAL Wt (G)” value in assay [3] is listed as 2.4 (0.04) G. For the same molecule, the “24 HR. FECAL WT” value in assay [4] is recorded as 5.7 (0.4) G.

Consider `CCCC[C@]1(CC)CS(=O)(=O)c2ccc(NC(=O)CCCCCCCCCCC(=O)Nc3ccc4c(c3)[C@@H](c3ccccc3)[C@@H](O)[C@](CC)(CCCC)CS4(=O)=O)cc2[C@@H](c2ccccc2)[C@H]1O` [Example 101], for which the inhibition at 1 µM in assay [2] (@ 1.0 μM, read-out: Alanine Uptake Percent Inhibition @ μM) is 0%.

With `CCCC[C@]1(CC)CS(=O)(=O)c2cc(OCCOCCOCCOc3ccc4c(c3)S(=O)(=O)C[C@@](CC)(CCCC)[C@H](O)[C@@H]4c3ccccc3)ccc2[C@@H](c2ccccc2)[C@H]1O` [Example 135], the IC50 in assay [1] (read-out: Human TC IC50) came out at 22000 nM.

For the molecule `CCCC[C@@]1(CC)CS(=O)(=O)c2cc(OCCOCCOCCOc3ccc4c(c3)S(=O)(=O)C[C@@](CC)(CCCC)[C@@H](O)[C@H]4c3ccccc3)ccc2[C@@H](c2ccccc2)[C@H]1O` [Example 137], the IC50 in assay [1] (read-out: Human TC IC50) was determined as 2400 nM.

`CCCCC1(CC)CS(=O)(=O)c2ccc(OC)cc2C(c2ccccc2F)C1O` (stereo not drawn) [Example 278]: the IC50 in assay [1] (read-out: Human TC IC50) worked out at 3000 nM.

With `CCCCC1(CC)CS(=O)(=O)c2ccc(OC)cc2C(c2cccc(F)c2)C1O` (stereo not drawn) [Example 279], the IC50 in assay [1] (read-out: Human TC IC50) was 400 nM.

On to `CCCCC1(CCCC)CS(=O)(=O)c2ccc(NC(=O)OCc3ccccc3)cc2[C@@H](c2ccccc2)[C@H]1O` [Example 291], for which the IC50 in assay [1] (read-out: Human TC IC50) was determined as 600 nM.

As to `CCCCC1(CCCC)CS(=O)(=O)c2ccc(NCc3ccccc3)cc2[C@@H](c2ccccc2)[C@H]1O` [Example 293], the IC50 in assay [1] (read-out: Human TC IC50) was determined as 1900 nM.

Regarding `CCCCC1(CC)CS(=O)(=O)c2ccc(N(C)C)cc2C(c2ccc(OCCOCCOCCOc3ccc(C4c5cc(N(C)C)ccc5S(=O)(=O)CC(CC)(CCCC)C4O)cc3)cc2)C1O` (stereo not drawn) [Example 1211], the concentration for half-maximal inhibition (IC50) in assay [1] (read-out: Human TC IC50) is 280 nM.

Consider `CCCCC1(CCCC)CS(=O)(=O)c2ccc(NC(C)(C)C)cc2C(c2ccc(F)cc2)C1O` (stereo not drawn) [Example 1227], for which the IC50 in assay [1] (read-out: Human TC IC50) came out at 250 nM.

Consider `CCCCC1(CCCC)CS(=O)(=O)c2ccc(N(C)C)cc2C(c2ccc(OCCOCCOCCOc3ccc(C4c5cc(N(C)C)ccc5S(=O)(=O)CC(CCCC)(CCCC)C4O)cc3)cc2)C1O` (stereo not drawn) [Example 1261], for which the IC50 in assay [1] (read-out: Human TC IC50) amounted to 19 nM.

Regarding `CCCCC1(CCCC)CS(=O)(=O)c2ccc(N(C)C)cc2C(c2ccc(OCCCCCCCCCCI)cc2)C1O` (stereo not drawn) [Example 1269], the IC50 in assay [1] (read-out: Human TC IC50) is 24 nM.

For the molecule `CCCCC1(CCCC)CS(=O)(=O)c2ccc(N(C)C)cc2C(c2ccc(OCCCCBr)c(F)c2)C1O` (stereo not drawn) [Example 1270], the IC50 in assay [1] (read-out: Human TC IC50) stood at 24 nM.

As for `CCCCC1(CCCC)CS(=O)(=O)c2ccc(N(C)C)cc2C(c2ccc(OCCOCC[S+](CC)CC)c(F)c2)C1O` (stereo not drawn) [Example 1299], in assay [1] (read-out: Human TC IC50), the IC50 stood at 12 nM.

For the molecule `CCCCC1(CCCC)CS(=O)(=O)c2ccc(N(C)C)cc2C(c2ccc(OCCCCCCCCCCOc3ccccc3[N+](C)(C)CC)cc2)C1O` (stereo not drawn) [Example 1351], in assay [1] (read-out: Human TC IC50), the 50% inhibitory concentration (IC50) is 440 nM.

As to `CCCCC1(CCCC)CS(=O)(=O)c2ccc(N(C)C)cc2C(c2cccc(OCCOCCOCC[N+](CC)(CCCc3ccccc3)CCCc3ccccc3)c2)C1O` (stereo not drawn) [Example 1449], the IC50 in assay [1] (read-out: Human TC IC50) worked out at 52 nM.

In the case of `CCCCC1(CCCC)CS(=O)(=O)c2ccc(N(C)C)cc2C(c2ccccc2)C1O` (stereo not drawn) [Example 1450], the IC50 in assay [1] (read-out: Human TC IC50) was determined as 39 nM.

For `CCCCC1(CCCC)CS(=O)(=O)c2ccc(N(C)C)cc2C(c2cccc(NCCCS(=O)(=O)O)c2)C1O` (stereo not drawn) [Example 1451], the IC50 in assay [1] (read-out: Human TC IC50) is 14 nM.
